According to patent publication US20190255042A1, “APPLICATION OF HEDGEHOG PATHWAY INHIBITOR IN TREATING FIBROSIS DISEASES” (IMPACT THERAPEUTICS, INC, priority 2016, published 2019):

Legend:
[1] = system: unilateral pulmonary fibrosis model in SD rats; assay: Therapeutic efficacy in unilateral pulmonary fibrosis model in SD rats (bleomycin, dosing from D8); assay type: in vivo; set-up: Evaluation of injury and inflammatory lesions of left lung: Fibrotic lesion edge / Evaluation of injury and inflammatory lesions of left lung: Fibrosis lesion: scale not given here; settings: for Expression of Type I collagen (%) / Expression of α-SMA protein (%): left lung immunohistochemistry; for Expression of Type I collagen (%) / Expression of α-SMA protein (%) / Evaluation of injury and inflammatory lesions of left lung: Fibrosis lesion / Evaluation of injury and inflammatory lesions of left lung: Fibrotic lesion edge / Fibrosis area (left pulmonary) / Fibrosis Score 1-3 (%) / Fibrosis Score 4-8 (%) / Fibrosis score (Ashcraft) / Volume of left lung / Weight of left lung: mean ± sem; for Evaluation of injury and inflammatory lesions of left lung: Fibrosis lesion / Evaluation of injury and inflammatory lesions of left lung: Fibrotic lesion edge: HE score; for Fibrosis area (left pulmonary): Masson trichrome
Protocol: On the modeling day, rats were anesthetized and exposed to trachea. Bleomycin was injected into left trachea of each group (dosage: 3 mg/kg, volume: 1.0 ml/kg). Oral administration was performed on Day 8 after modeling, once a day. On Day 22, according to the KCI animal euthanasia SOP, animals in each group were given an overdose of sodium barbiturate and sacrificed under intraperitoneal anesthesia, the left lung was taken, the weight and volume of the left lung were measured, then fixed by formalin, the bronchioles were stained with HE, Masson trichrome. The bronchioles, final bronchiole and small pulmonary artery injury and inflammation invasion were evaluated by semi-quantitative score, and pulmonary fibrosis was evaluated by Ashcraft semi-quantitative score. Immunohistochemical staining of α-SMA, Type I collagen (Collagen-I) were performed at the same time, a full scan was performed by Hamamatsu NanoZoomer Digital Pathology (S210), the α-SMA positive area was semiquantitatively calculated from the unit area of the whole sheelt in pulmonary fibrosis foci, and the positive staining area of type-I collagent per unit of area was calculated.

[2] = system: lung fibrosis model in mice induced by bleomycin; assay: Therapeutic efficacy in lung fibrosis model in mice induced by bleomycin; assay type: in vivo, C57BL/6 mice; settings: for Percentage of positive α-SMA (%): lung tissue immunohistochemical staining; for Percentage of positive α-SMA (%) / Inflammatory infiltration area / Total lung tissue area / Percentage of inflammatory area (%): n = 10, Mean ± Sem; for Percentage of inflammatory area (%): #<0.05 vs. BLM model group; for inflammatory infiltration area compared with model group: p<0.05
Protocol: Experimental Methods: 60 male C57BL/6 mice were randomize into 6 groups: Blank control group (Group 1, n=10), model group (Group 2, BLM, n=10), Compound A 10 mpk group (Group 3, n=10), compound A 20 mpk group (Group 4, n=10), Compound A 20 mpk +BIBF1120 50 mpk (Group 5, n=10), and BIBF1120 50 mpk positive reference group (Group 6, n=10). One week after the mice were acclimated to the environment, 10 mice in the blank control group were given 50 μl of normal saline in the trachea, and other 50 mice were given 50 μl BLM (0.66 mg/kg, 2 ml/kg) in the trachea. After BLM infusion, 50 mice in BLM infusion group were randomly assigned to start treatment on the 5th day, once a day, with a treatment cycle of 20 days. The whole process was 25 days. After the experiment, the lung tissues were fixed in 10% neutral formalin, dehydrated by alcohol gradient, embedded with paraffin, stained by hematoxylin-eosin (H&E) and Masson trichrome staining. And the inflammatory area and degree of fibrosis of the lung tissues in mice were evaluated by APERIO ScanScope. Immunohistochemical staining of lung tissue was performed to quantify α-SMA positive fibroblasts in lung tissue and to calculate the percentage (%) of α-SMA staining in the entire lung stroma.

[3] = system: unilateral pulmonary fibrosis model in SD rats; assay: Prophylactic therapeutic efficacy in unilateral pulmonary fibrosis model in SD rats (bleomycin); assay type: in vivo; set-up: key to Fibrosis score (Ashcraft): Ashcraft semi-quantitative fibrosis score; Evaluation of injury and inflammatory lesions of left lung: Fibrotic lesion edge / Evaluation of injury and inflammatory lesions of left lung: Fibrosis lesion: scale not given here; settings: for Evaluation of injury and inflammatory lesions of left lung: Fibrosis lesion / Evaluation of injury and inflammatory lesions of left lung: Fibrotic lesion edge / Fibrosis area (left pulmonary fibrosis) / Fibrosis Score 1-3 (%) / Fibrosis Score 4-8 (%) / Fibrosis score (Ashcraft) / Volume of left lung / Weight of left lung: D15, mean ± sem, n = 8; for Evaluation of injury and inflammatory lesions of left lung: Fibrosis lesion / Evaluation of injury and inflammatory lesions of left lung: Fibrotic lesion edge: HE score; for Fibrosis area (left pulmonary fibrosis): Masson trichrome; for weight of left lung compared with model group: p<0.05
Protocol: 40 male SD rats were randomized into Model group (Group 1, n=8), positive drug group BIBF1120 60 mg/kg/d group (Group 2, n=8), Compound A 5 mg/kg/d group (Group 3, n=8), compound A 10 mg/kg/d group (Group 4, n=8) and Compound A 20 mg/kg/d (Group 5, n=8). On the modeling day, rats were anesthetized and exposed to trachea. Bleomycin was injected into trachea of each group (dosage: 3 mg/kg, volume: 1.0 ml/kg). Oral administration was performed 2 hours after modeling, once a day. On Day 15, all the animals were killed, the left lung was taken, the weight and volume of the left lung were measured, then fixed by formalin, the bronchioles were stained with HE, Masson trichrome. The bronchioles, final bronchiole and small pulmonary artery injury and inflammation invasion were evaluated by semi-quantitative score, and pulmonary fibrosis was evaluated by Ashcraft semi-quantitative score.

[4] = 5 mpk oral D8 to D22 after modeling
[5] = 15 mpk oral D8 to D22 after modeling
[6] = 30 mpk oral D8 to D22 after modeling
[7] = 5 mg/kg/d oral from modeling day
[8] = 10 mg/kg/d oral from modeling day
[9] = 20 mg/kg/d oral from modeling day

CC(C)c1cnc(-c2cc(NC(=O)c3ccc(N4C[C@@H](C)N(C)[C@@H](C)C4)cc3C(F)(F)F)ccc2Cl)[nH]1 [Comp A, N-(3-(5-isopropyl-1H-imidazol-2-yl)-4-chlorophenyl)-2-trifluoromethyl-4-((3S,5R)-3,4,5-trimethylpiperazin-1-yl)benzamide]
percentage of α-SMA protein compared with model group ([1]; 30 mg/kg/d): significantly decreased
percentage of Type-I collagen protein ([1]; 30 mg/kg/d and 15 mg/kg/d, no statistical significance): decreased
dose dependence of α-SMA protein expression ([1]; 5, 15, 30 mg/kg/d): significant dose dependence
Expression of Type I collagen (%) ([1]; 5 mpk oral D8 to D22, n = 5): 18.76 ± 2.54%
Expression of α-SMA protein (%) ([1]; 5 mpk oral D8 to D22, n = 5): 8.06 ± 0.59%
Evaluation of injury and inflammatory lesions of left lung: Fibrosis lesion [1, 4]: 6.75 ± 0.40
Evaluation of injury and inflammatory lesions of left lung: Fibrotic lesion edge [1, 4]: 4.90 ± 0.15
Fibrosis area (left pulmonary) [1, 4]: 70.61 ± 5.23
Fibrosis Score 1-3 (%) [1, 4]: 88.00 ± 5.83%
Fibrosis Score 4-8 (%) [1, 4]: 12.00 ± 5.83%
Fibrosis score (Ashcraft) [1, 4]: 2.44 ± 0.11
Volume of left lung [1, 4]: 1.34 ± 0.14 cm^3
Weight of left lung [1, 4]: 1.60 ± 0.33 g
damage and inflammatory response of terminal bronchioles within fibrosis lesions and pulmonary small artery compared with model group ([1]; 14 consecutive days, BIBF1120 100, Compound A 5, 15, 30, GDC0449 50 mg/kg/d, p<0.001): significantly reduced
Expression of Type I collagen (%) ([1]; 15 mpk oral D8 to D22, n = 7): 16.48 ± 0.93%
Expression of α-SMA protein (%) ([1]; 15 mpk oral D8 to D22, n = 7): 7.30 ± 0.84%
Evaluation of injury and inflammatory lesions of left lung: Fibrosis lesion [1, 5]: 6.89 ± 0.34
Evaluation of injury and inflammatory lesions of left lung: Fibrotic lesion edge [1, 5]: 4.82 ± 0.24
Fibrosis area (left pulmonary) [1, 5]: 71.16 ± 2.81
Fibrosis Score 1-3 (%) [1, 5]: 91.43 ± 1.43%
Fibrosis Score 4-8 (%) [1, 5]: 8.57± 1.43%
Fibrosis score (Ashcraft) [1, 5]: 2.44 ± 0.07
Volume of left lung [1, 5]: 1.41 ± 0.21 cm^3
Weight of left lung [1, 5]: 1.40 ± 0.21 g
Expression of Type I collagen (%) ([1]; 30 mpk oral D8 to D22, n = 7): 16.77 ± 2.03%
Expression of α-SMA protein (%) ([1]; 30 mpk oral D8 to D22, n = 7, **p<0.01 vs. Model group): 4.96 ± 0.26** %
Evaluation of injury and inflammatory lesions of left lung: Fibrosis lesion [1, 6]: 7.03 ± 0.18
Evaluation of injury and inflammatory lesions of left lung: Fibrotic lesion edge [1, 6]: 4.95 ± 0.20
Fibrosis area (left pulmonary) [1, 6]: 71.27 ± 3.21
Fibrosis Score 1-3 (%) [1, 6]: 84.29 ± 4.81%
Fibrosis Score 4-8 (%) [1, 6]: 15.71 ± 4.81%
Fibrosis score (Ashcraft) [1, 6]: 2.47 ± 0.16
Volume of left lung [1, 6]: 1.40 ± 0.09 cm^3
Weight of left lung [1, 6]: 1.44 ± 0.14 g
degree of pulmonary fibrosis (Ashcraft score) compared with model group ([1]; BIBF1120 100, Compound A 5, 15, 30, GDC0449 50 mg/kg/d, p<0.01): significantly better
amount of Type I collagen deposition in the fibrotic lesions compared with model group ([1]; BIBF1120 100 mpk, Compound A 5 mpk, GDC0449 50 mpk): no significant difference
Percentage of positive α-SMA (%) ([2]; 10 mpk oral D5 to D25): 0.78 ± 0.11%
Inflammatory infiltration area ([2]; 10 mpk oral D5 to D25): 8.80 ± 2.79 mm^2
Total lung tissue area ([2]; 10 mpk oral D5 to D25): 100.20 ± 3.61 mm^2
Percentage of inflammatory area (%) ([2]; 10 mpk oral D5 to D25): 9.42 ± 3.35^# %
modified pathological Ashcroft score of pulmonary fibrosis injury compared with model group ([2]; 10 mpk, p<0.01): significantly decreased
inflammatory infiltration area compared with model group ([2]; 10 mpk): significantly decreased
Percentage of positive α-SMA (%) ([2]; 20 mpk oral D5 to D25, ##p < 0.01 vs. Model group): 0.64 ± 0.12^## %
Inflammatory infiltration area ([2]; 20 mpk oral D5 to D25): 7.85 ± 2.28 mm^2
Total lung tissue area ([2]; 20 mpk oral D5 to D25): 96.41 ± 3.28 mm^2
Percentage of inflammatory area (%) ([2]; 20 mpk oral D5 to D25): 8.23 ± 2.40^# %
immunohistochemical staining of α-SMA compared with model group ([2]; 20 mpk, p<0.01): significantly decreased
modified pathological Ashcroft score of pulmonary fibrosis injury compared with model group ([2]; 20 mpk, p<0.01): significantly decreased
inflammatory infiltration area compared with model group ([2]; 20 mpk): significantly decreased
Evaluation of injury and inflammatory lesions of left lung: Fibrosis lesion [3, 7]: 7.93 ± 0.16
Evaluation of injury and inflammatory lesions of left lung: Fibrotic lesion edge [3, 7]: 5.93 ± 0.20
Fibrosis area (left pulmonary fibrosis) [3, 7]: 81.64 ± 10.49
Fibrosis Score 1-3 (%) [3, 7]: 62.50 ± 16.69%
Fibrosis Score 4-8 (%) [3, 7]: 37.50 ± 16.69%
Fibrosis score (Ashcraft) [3, 7]: 3.33 ± 0.36
Volume of left lung [3, 7]: 1.38 ± 0.05 cm^3
Weight of left lung [3, 7]: 1.37 ± 0.08 g
Evaluation of injury and inflammatory lesions of left lung: Fibrosis lesion [3, 8]: 6.93 ± 0.21
Evaluation of injury and inflammatory lesions of left lung: Fibrotic lesion edge [3, 8]: 5.45 ± 0.28
Fibrosis area (left pulmonary fibrosis) [3, 8]: 78.84 ± 4.44
Fibrosis Score 1-3 (%) [3, 8]: 68.75 ± 19.59%
Fibrosis Score 4-8 (%) [3, 8]: 31.25 ± 19.59%
Fibrosis score (Ashcraft) [3, 8]: 3.15 ± 0.32
Volume of left lung [3, 8]: 1.29 ± 0.06 cm^3
Weight of left lung [3, 8]: 1.13 ± 0.05 g
Evaluation of injury and inflammatory lesions of left lung: Fibrosis lesion [3, 9]: 7.68 ± 0.31
Evaluation of injury and inflammatory lesions of left lung: Fibrotic lesion edge [3, 9]: 6.00 ± 0.13
Fibrosis area (left pulmonary fibrosis) [3, 9]: 76.37 ± 8.33
Fibrosis Score 1-3 (%) [3, 9]: 71.25 ± 22.95%
Fibrosis Score 4-8 (%) [3, 9]: 28.75 ± 22.95%
Fibrosis score (Ashcraft) [3, 9]: 3.29 ± 0.63
Volume of left lung [3, 9]: 1.21 ± 0.09 cm^3
Weight of left lung [3, 9]: 1.13 ± 0.08 g
injury of terminal bronchioles and pulmonary arterioles compared with model group and Compound A-5 mpk group ([3]; 10 mpk, fibrosis foci, p<0.001): significantly reduced
weight of left lung compared with model group ([3]; 10 mpk): significantly lower
weight of left lung compared with model group ([3]; 20 mpk): significantly lower
degree of pulmonary fibrosis (Ashcraft score) compared with model group ([3]; BIBF1120 60 mg/kg/d, Compound A 5, 10, 20 mg/kg/d, p<0.01): significantly alleviated
average score of fibrosis in the entire fibrosis lesion (ashcraft) ([3]; BIBF1120 60 mg/kg/d, compound A 5, 10, 20 mg/kg/d): about 3 points
